What all share (type): physicochemical
The nature of series [1]: Relaxivities summarised over the field strengths investigated or without stated field. The settings on record: three field strengths investigated. As to the method:
T1 and T2 relaxation time measurements were performed on Bruker Minispecs operating at 1H resonance frequencies of 20 and 60 MHz. An inversion recovery pulse sequence was employed for T1 relaxation time measurements using a monoexponential fit to the recovery curve. For each experiment, 4 scans were collected with a recycle delay of 15 s. To obtain the recovery curve, 50 evenly spaced points were collected with the first point acquired at 5 ms. The last time point was collected at 4000 ms for short T1 samples and 10,000 ms for samples with long T1 so that each sample was allowed to fully recover. The receiver gain for each sample was set so that the signal amplitude was approximately 60%.
(§1) The T2 times were calculated from a monoexponential fit to a spin echo decay curve using a Carr-Purcell-Meiboom-Gill (CPMG) pulse sequence. […]
(§2) All MRI experiments were performed on a Bruker Avance 400 MHz (9.4 T) spectrometer equipped with a high-resolution Micro5 microimaging system with a 25 mm RF coil. […] We also obtained quantitative evaluation of the longitudinal relaxation times, T1, by plotting M/Mo versus log(τ), that is, the residual magnetization as a function of the recovery time. T1 values were measured by fitting M(τ)/Mo to an single-exponential growth curve: (M(τ)/Mo)=(1−[…]). Transverse relaxation times were determined by a plot of log-(M/Mo) versus τ. […]

A short description of series [2]: T1/T2 relaxation MRI on Bruker Avance 400 MHz (9.4 T) microimaging system. The conditions noted are these: measured simultaneously with the nanoparticles at 400 MHz; repeated. As for the experimental part:
The concentrations of our solutions are given in terms of silanized nanoparticle concentration and not in terms of Gd^3+ present in solution because the latter is attached to the nanoparticles. At 1 μM concentration, the average distance between nanoparticles is over 100 nm. We determined the concentration of the nanoparticle solution by measuring the UV-vis spectrum. […] We used the following numbers: QD exciton peak at approximately 610 nm, fluorescence emission at approximately 630 nm, full width at half-maximum (fwhm) of 38 nm, extinction coefficient used 620 000 M^−1cm^−1 following published reports (Yu, et al. (2003) Chem. Mater. 15: 2854-2860). […] These latter numbers were computed from the concentrations given by the manufacturer and the OD of citrate-stabilized Au colloids measured directly out of the bottle.
as §2

Series [3] is described as follows: Gd3+ release from DOTA, colorimetric Arsenazo test. The settings on record: several weeks. As for the experimental part: The synthesis of Gd-DOTA (i.e., one Gd3+ ion chelated by DOTA) was performed according to a procedure adapted from previous reports (Wang et al. (1992) Inorg. Chem. 31: 1095-1099; Prantner et al. (2003) Mol. Imaging 2: […]). We dissolved p-NH2-Bn-DOTA (2-(4-aminobenzyl)-1,4,7,10-tet-raazacyclododecane-1,4,7,10-tetraacetic acid) in water and add an aqueous solution of GdCl3 (Sigma-Alrich), so as to have a 1:0.98 molar mixture of DOTA/Gd3+ and approximately 0.2 M concentration in DOTA. The solution was heated a few minutes to 80° C. to favor coordination of Gd3+ with the tetraazacy-clododecane ring. The pH of the solution droped below 1. We brought the pH to 3.5-4 by adding aliquots of 7 M NaOH and heat the solution back to 80° C. for a few minutes. At this early stage, heating produces acidification of the solution. […] At that stage, the solution was kept at 80° C. for 3 h. Completion of the Gd^3+ chelation was confirmed by a colorimetric assay using Arsenazo dye (Sigma-Alrich). This colorimetric dye reacts to the presence of unbound or free Gd^3+. The dye natural color is purple, but if it binds to Gd^3+ its color turns to blue. […] The stability of the Gd-DOTA has been studied using the colorimetric Arsenazo test.

The nature of series [4]: T1 and T2 relaxation time measurements on Bruker Minispecs at 20 and 60 MHz. The settings on record: 20-100 MHz; comparison line.
Excerpt: After extensive purification from unbound Gd-DOTA, these samples were chemically analyzed by inductively coupled plasma mass spectrometry (ICP-MS) by measuring the total amount of Gd and Cd or Au ions. By assuming bulk parameters of the CdSe or Au lattice and the size of the nanoparticles (using tabulated values linking the size of the QDs to its optical properties, or the claimed size for Au nanocrystals), we deduced the number of Gd per silanized nanoparticle. The number of Gd^3+ […] SiO2-coated nanoparticle varied from 3 to greater than 300 and depends on the size of the initial nanoparticles and the conditions used during the conjugation of Gd-DOTA to the silanized nanoparticles. Notice that the same samples were used for MRI study and ICP-MS analysis.
T1 and T2 relaxation time measurements were performed on Bruker Minispecs operating at 1H resonance frequencies of 20 and 60 MHz. An inversion recovery pulse sequence was employed for T1 relaxation time measurements using a monoexponential fit to the recovery curve. For each experiment, 4 scans were collected with a recycle delay of 15 s. To obtain the recovery curve, 50 evenly spaced points were collected with the first point acquired at 5 ms. […]
as §1

Gd-DOTA: the “relaxivities of unbound Gd-DOTA” value in series [1] lay in the range of 3 to 12 mM⁻¹ s⁻¹. In series [2], the “r1 Gd^3+ ion relaxivity of unbound Gd-DOTA” value turned out to be 3.7 ± 0.04 mM⁻¹ s⁻¹ and the “r2 Gd^3+ ion relaxivity of unbound Gd-DOTA” value amounted to 3.8 ± 0.2 mM⁻¹ s⁻¹. The “Gd^3+ release from the DOTA ring” value in series [3] is reported as “No Gd^3+ release”. For the same substance, in series [4], the “r1 Gd^3+ ion relaxivity of unbound Gd-DOTA” value lay in the range of 3 to 5 mM⁻¹ s⁻¹.

Values taken from patent publication US20100183504A1, “MULTIMODAL IMAGING PROBES FOR IN VIVO TARGETED AND NON-TARGETED IMAGING AND THERAPEUTICS” (priority 2007, published 2010).
